Assay results from ChEMBL document CHEMBL5360578, “Design, synthesis and evaluation of novel pyrrole-hydroxybutenolide hybrids as promising antiplasmodial and anti-inflammatory agents” (Eur J Med Chem, 2023).
Calls of active or inactive are those of the source. No cut-off for these calls is given here.

Experiments:
Plasmodium falciparum [1] = test: Antimalarial activity against asynchronous chloroquine-resistant Plasmodium falciparum K1 assessed as parasite growth inhibition infected in erythrocytes incubated for 72 hrs by SYBR green dye based assay; assay type: functional, organism-based; conditions: K1, 72 h
Plasmodium falciparum [2] = test: Antimalarial activity against asynchronous chloroquine-sensitive Plasmodium falciparum 3D7 assessed as parasite growth inhibition infected in erythrocytes incubated for 72 hrs by SYBR green dye based assay; assay type: functional, organism-based; conditions: 3D7, 72 h
Mus musculus [3] = test: Antiinflammatory activity in Swiss albino mouse assessed as inhibition of carrageenan-induced paw edema at 200 mg/kg,po pretreated for 1 hr followed by carrageenan administration measured after 6 hrs relative to control; assay type: functional; conditions: time 7 hrs
Mus musculus [4] = test: Antiinflammatory activity in Swiss albino mouse assessed as inhibition of carrageenan-induced paw edema at 200 mg/kg,po pretreated for 1 hr followed by carrageenan administration measured after 4 hrs relative to control; assay type: functional; conditions: time 5 hrs
HEK-293T [5] = test: Antiinflammatory activity against HEK293T cells assessed as fold increase in TNFalpha-induced NF-kappaB activity at 10 uM incubated for 1 hr followed by TNFalpha treatment for 5 hrs by luciferase based assay (reference value: 17.1); assay type: functional, Homo sapiens
THP-1 [6] = test: Cytotoxicity against LPS-stimulated human THP-1 cells assessed as cell viability at 10 uM incubated for 12 hrs followed by LPS treatment measured after 4 hrs by PI staining based flow cytometry; assay type: functional; conditions: time 16.0 hrs
THP-1 [7] = test: Antiinflammatory activity against human THP-1 cells assessed as inhibition of LPS-induced TNFalpha level at 10 uM incubated for 12 to 14 hrs followed by compound replenishment for 1 hr and subsequent LPS treatment for 4 hrs by ELISA assay (reference value: 93.43 %); assay type: functional; design: scale not given: the % may be the effect or the level left; conditions: time 17-19 hrs
HEK-293T [8] = test: Antiinflammatory activity against HEK293T cells assessed as fold increase in TNFalpha-induced NF-kappaB activity at 1 uM incubated for 1 hr followed by TNFalpha treatment for 5 hrs by luciferase based assay (reference value: 17.1); assay type: functional, Homo sapiens; conditions: time 6 hrs
[9] = Cmax in fasted Swiss mouse at 50 mg/kg, po measured upto 48 hrs by LC-MS/MS analysis; assay type: ADME, organism-based; design: time < 48 hrs, dose 50 mg/kg, route po; conditions: in vivo
[10] = Stability in mouse plasma assessed as compound remaining at 10 uM measured upto 120 mins by LC-MS analysis; assay type: ADME, cell-free; conditions: read-out: Stability
Plasmodium yoelii [11] = test: Antimalarial activity against chloroquine-resistant Plasmodium yoelii N67 infected in Swiss mouse assessed as parasite growth suppression at 100 mg/kg/day, po for 4 days measured on day 7 relative to control; assay type: functional; conditions: time 7 day
[12] = MRT in fasted Swiss mouse at 50 mg/kg, po measured upto 48 hrs by LC-MS/MS analysis; assay type: ADME, organism-based; conditions: in vivo
THP-1 [13] = test: Downregulation of LPS-induced ERK1/2 phosphorylation in human THP-1 cells at 10 uM incubated for 60 mins followed by LPS treatment 90 mins by […]; assay type: functional, cell-based; conditions: time 150.0 min
[14] = Stability in simulated intestinal fluid assessed as compound remaining at pH 6.8 measured upto 120 mins by LC-MS analysis; assay type: ADME; conditions: read-out: Stability
[15] = Tmax in fasted Swiss mouse at 50 mg/kg, po measured upto 48 hrs by LC-MS/MS analysis; assay type: ADME, organism-based; conditions: in vivo
THP-1 [16] = test: Downregulation of LPS-induced JNK1/2 phosphorylation in human THP-1 cells at 10 uM incubated for 60 mins followed by LPS treatment 90 mins by […]; assay type: functional, cell-based; conditions: time 150.0 min
[17] = Clearance in fasted Swiss mouse at 50 mg/kg, po measured upto 48 hrs by LC-MS/MS analysis; assay type: ADME, organism-based; conditions: in vivo
Mus musculus [18] = test: Antiinflammatory activity in Swiss albino mouse assessed as inhibition of carrageenan-induced paw edema at 25 mg/kg,po pretreated for 1 hr followed by carrageenan administration measured after 4 hrs relative to control; assay type: functional; conditions: time 5 hrs
Mus musculus [19] = test: Antiinflammatory activity in Swiss albino mouse assessed as inhibition of carrageenan-induced paw edema at 25 mg/kg,po pretreated for 1 hr followed by carrageenan administration measured after 6 hrs relative to control; assay type: functional; conditions: time 7 hrs
Mus musculus [20] = test: Antiinflammatory activity in Swiss albino mouse assessed as inhibition of carrageenan-induced paw edema at 100 mg/kg,po pretreated for 1 hr followed by carrageenan administration measured after 4 hrs relative to control; assay type: functional; conditions: time 5 hrs
[21] = Volume of distribution in fasted Swiss mouse at 50 mg/kg, po measured upto 48 hrs by LC-MS/MS analysis; assay type: ADME, organism-based; conditions: in vivo
Mus musculus [22] = test: Antiinflammatory activity in Swiss albino mouse assessed as inhibition of carrageenan-induced paw edema at 100 mg/kg,po pretreated for 1 hr followed by carrageenan administration measured after 6 hrs relative to control; assay type: functional; conditions: time 7 hrs
Mus musculus [23] = test: Antiinflammatory activity in Swiss albino mouse assessed as inhibition of carrageenan-induced paw edema at 50 mg/kg,po pretreated for 1 hr followed by carrageenan administration measured after 6 hrs relative to control; assay type: functional; conditions: time 7 hrs
Mus musculus [24] = test: Antiinflammatory activity in Swiss albino mouse assessed as inhibition of carrageenan-induced paw edema at 50 mg/kg,po pretreated for 1 hr followed by carrageenan administration measured after 4 hrs relative to control; assay type: functional; conditions: time 5 hrs
[25] = Cytotoxicity against African green monkey Vero cells incubated for 3 days by fluorescence based assay; assay type: toxicity, cell-based; conditions: chlorocebus sabaeus, time 3 day
[26] = Half life in fasted Swiss mouse at 50 mg/kg, po measured upto 48 hrs by LC-MS/MS analysis; assay type: ADME, organism-based; conditions: in vivo
[27] = AUC in fasted Swiss mouse at 50 mg/kg, po measured upto 48 hrs by LC-MS/MS analysis; assay type: ADME, organism-based; design: time < 48 hrs, dose 50 mg/kg, route po; conditions: in vivo
[28] = Toxicity in Swiss mouse infected with chloroquine-resistant Plasmodium yoelii N67 assessed as mean survival time at 100 mg/kg/day, po for 4 days (reference value: 7.2 +/- 1.3 day); assay type: organism-based; conditions: in vivo, 96 h, time 4 day
Plasmodium yoelii [29] = test: Antimalarial activity against chloroquine-resistant Plasmodium yoelii N67 infected in Swiss mouse assessed as parasite growth suppression at 100 mg/kg/day, po for 4 days measured on day 4 relative to control; assay type: functional; conditions: time 4 day
[30] = Stability in simulated gastric fluid assessed as compound remaining at pH 1.2 measured upto 120 mins by LC-MS analysis; assay type: ADME; conditions: read-out: Stability
[31] = Stability in simulated physiological fluid assessed as compound remaining at pH 7.4 measured upto 120 mins by LC-MS analysis; assay type: physicochemical; conditions: read-out: Stability

Q: For `O=C1C=C(O)CO1`, which IC50 (Plasmodium falciparum [1]) is on record?
A: > 5 µM

Q: And the IC50 (Plasmodium falciparum [2])?
A: 4.88 µM

Q: What does the source list for `CC(C)Cc1ccc(C(C)C(=O)O)cc1` (stereo not drawn) [IBUPROFEN]?
A: inhibition in vivo at 200 mg/kg (Mus musculus [3]): 72%; inhibition in vivo at 200 mg/kg (Mus musculus [4]): 78%

Q: What does the source list for `CCc1ccc(-c2c(-c3ccccc3)c(C(=O)Nc3ccccc3)c(C)n2CCC2=CC(=O)OC2O)cc1` (stereo not drawn)?
A: fold change (FC) (HEK-293T [5]): 7.8; IC50 (Plasmodium falciparum [2]): 1.55 µM; Activity (THP-1 [6]): Active; Activity (THP-1 [7]): 89.93%

Q: For `S=C(S)N1CCCC1` [PYRROLIDINE DITHIOCARBAMATE], which “fold change (FC)” value (HEK-293T [8]) is on record?
A: 2.3

Q: With `CC(C)c1c(C(=O)Nc2ccccc2)c(-c2ccccc2)c(-c2ccc(F)cc2)n1CC[C@@H](O)C[C@@H](O)CC(=O)O` [ATORVASTATIN] as the compound, how does the IC50 (Plasmodium falciparum [1]) read?
A: > 5 µM

Q: And the IC50 (Plasmodium falciparum [2])?
A: 4.6 µM

Q: Which “fold change (FC)” value (HEK-293T [5]) does the source give for `Cc1c(C(=O)Nc2ccccc2)c(-c2ccccc2)c(-c2ccc(C(C)C)cc2)n1CCC1=CC(=O)OC1O` (stereo not drawn) here?
A: 7.4

Q: What about the Cmax [9] of the same compound?
A: 369 ng/mL

Q: What about the remaining at 2 h, 10 µM [10] of the same compound?
A: 81.8%

Q: And the Activity (Plasmodium yoelii [11])?
A: 46.4%

Q: And the MRT [12]?
A: 58.8 min

Q: What about the Activity (THP-1 [13]) of the same compound?
A: Active

Q: And the remaining at 2 h [14]?
A: 89.9%

Q: And the Tmax [15]?
A: 15 min

Q: What about the Activity (THP-1 [16]) of the same compound?
A: Active

Q: And the CL/F [17]?
A: 292 L/h/kg

Q: And the inhibition in vivo at 25 mg/kg (Mus musculus [18])?
A: 49%

Q: And the inhibition in vivo at 25 mg/kg (Mus musculus [19])?
A: 43%

Q: What about the inhibition in vivo at 100 mg/kg (Mus musculus [20]) of the same compound?
A: 67%

Q: What about the Vd [21] of the same compound?
A: 541.85 L/kg

Q: What about the inhibition in vivo at 100 mg/kg (Mus musculus [22]) of the same compound?
A: 62%

Q: And the IC50 (Plasmodium falciparum [1])?
A: 4.21 µM

Q: What about the IC50 (Plasmodium falciparum [2]) of the same compound?
A: 0.97 µM

Q: What about the inhibition in vivo at 50 mg/kg (Mus musculus [23]) of the same compound?
A: 58%

Q: And the inhibition in vivo at 50 mg/kg (Mus musculus [24])?
A: 60%

Q: What about the Activity (THP-1 [6]) of the same compound?
A: Active

Q: And the CC50 at 72 h [25]?
A: 138 µM

Q: And the half-life [26]?
A: 75 min

Q: And the AUC at 48 h [27]?
A: 178 ng·h/mL

Q: And the MST [28]?
A: 12.2 days

Q: And the Activity (Plasmodium yoelii [29])?
A: 69.4%

Q: And the remaining at 2 h [30]?
A: 89.7%

Q: And the Activity (THP-1 [7])?
A: 92.51%

Q: What about the remaining at 2 h [31] of the same compound?
A: 89.8%

Q: Which “fold change (FC)” value (HEK-293T [5]) does the source give for `CCc1ccc(-c2c(-c3ccccc3)c(C(=O)Nc3ccccc3)c(C)n2CC2=CC(=O)OC2O)cc1` (stereo not drawn) here?
A: 7

Q: What about the IC50 (Plasmodium falciparum [2]) of the same compound?
A: 1.21 µM

Q: And the Activity (THP-1 [6])?
A: Active

Q: And the Activity (THP-1 [7])?
A: 89.97%
